One block for each molecule: values may come before it. The source made the active and inactive calls.
What was measured:
[1] = molecular target: Glucose-6-phosphate 1-dehydrogenase (Homo sapiens, UniProt P11413); test: inhibition of Homo sapiens G6PD, dose series – biochemical, fluorescence, selectivity assay for P. falciparum G6PD inhibitor project, dose response (AID 504792); format: functional
[2] = molecular target: T1, Rac GTPase-activating protein 1 (Homo sapiens, UniProt Q9H0H5); test: blockers of MgcRacGAP-driven Rac1 GTP hydrolysis – biochemical, ADP Hunter fluorescence, primary and confirmatory, confirmation (AID 624330); format: functional
T1 sequence (Q9H0H5 whole entry): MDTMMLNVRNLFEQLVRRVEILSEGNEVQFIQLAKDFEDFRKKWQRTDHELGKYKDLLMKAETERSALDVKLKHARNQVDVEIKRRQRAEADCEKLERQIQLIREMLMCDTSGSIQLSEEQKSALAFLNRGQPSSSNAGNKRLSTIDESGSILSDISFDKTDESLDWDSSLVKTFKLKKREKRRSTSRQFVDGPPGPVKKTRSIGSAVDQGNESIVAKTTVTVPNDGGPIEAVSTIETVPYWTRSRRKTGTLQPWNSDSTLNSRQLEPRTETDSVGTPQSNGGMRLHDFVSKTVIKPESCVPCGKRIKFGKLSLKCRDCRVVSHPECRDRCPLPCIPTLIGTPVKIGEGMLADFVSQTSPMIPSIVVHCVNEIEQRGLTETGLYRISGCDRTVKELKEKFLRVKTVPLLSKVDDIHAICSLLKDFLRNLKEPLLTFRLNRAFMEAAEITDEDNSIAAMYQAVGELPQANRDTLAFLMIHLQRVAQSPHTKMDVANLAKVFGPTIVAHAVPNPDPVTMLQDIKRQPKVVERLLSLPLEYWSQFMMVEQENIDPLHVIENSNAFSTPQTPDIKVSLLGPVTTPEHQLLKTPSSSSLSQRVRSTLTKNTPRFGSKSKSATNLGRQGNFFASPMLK

[3] = viability loss in CEM21 cells – cell-based, CellTiter-Glo luminescence, cherry-picked, cytotoxicity control for viral fusion inhibitor project, dose response (AID 652042); format: functional;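 note: potency for signal decrease meaning cytotoxicity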
[4] = molecular target: T2, DNA repair protein RAD52 homolog (Homo sapiens, UniProt P43351); format: functional, biochemical
T2 sequence (P43351 whole entry): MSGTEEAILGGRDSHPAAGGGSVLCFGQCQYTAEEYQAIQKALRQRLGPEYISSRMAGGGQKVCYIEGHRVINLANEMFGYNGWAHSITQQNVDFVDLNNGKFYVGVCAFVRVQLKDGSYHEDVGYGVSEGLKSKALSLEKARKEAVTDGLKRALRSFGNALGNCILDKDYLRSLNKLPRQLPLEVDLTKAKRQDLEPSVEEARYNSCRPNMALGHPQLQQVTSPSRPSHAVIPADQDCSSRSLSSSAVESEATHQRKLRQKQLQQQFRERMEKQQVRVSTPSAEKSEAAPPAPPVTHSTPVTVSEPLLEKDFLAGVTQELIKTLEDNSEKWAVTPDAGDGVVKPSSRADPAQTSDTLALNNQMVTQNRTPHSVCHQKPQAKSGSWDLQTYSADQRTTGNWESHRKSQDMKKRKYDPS

[5] = T. cruzi growth inhibition in host cells, dose response, cell-based, plate reader, dry powder, set 2 (AID 652275); format: functional
[6] = activation of miR-122 Renilla sensor silencing – cell-based, Huh7 psiCHECK-miR122, Renilla luciferase, cherry-picked, dose response (AID 651956); format: functional;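 note: huh7 hepatoma cells stably carrying a psiCHECK-2 miR-122 sensor plasmid; renilla luciferase signal reporting endogenous miR-122 activity after 48 h compound exposure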
[7] = molecular target: Paired box protein Pax-8 (Homo sapiens, UniProt Q06710); test: PAX8 transcriptional activity inhibition in RMG-I – RMG-I cells, luciferase, cherry-pick, dose response (AID 687027); format: functional, cell-based;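 note: luciferase reporter driven by Pax8 target thyroperoxidase promoter measured by SteadyGlo luminescence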
Chain of Paired box protein Pax-8 (Q06710 whole entry): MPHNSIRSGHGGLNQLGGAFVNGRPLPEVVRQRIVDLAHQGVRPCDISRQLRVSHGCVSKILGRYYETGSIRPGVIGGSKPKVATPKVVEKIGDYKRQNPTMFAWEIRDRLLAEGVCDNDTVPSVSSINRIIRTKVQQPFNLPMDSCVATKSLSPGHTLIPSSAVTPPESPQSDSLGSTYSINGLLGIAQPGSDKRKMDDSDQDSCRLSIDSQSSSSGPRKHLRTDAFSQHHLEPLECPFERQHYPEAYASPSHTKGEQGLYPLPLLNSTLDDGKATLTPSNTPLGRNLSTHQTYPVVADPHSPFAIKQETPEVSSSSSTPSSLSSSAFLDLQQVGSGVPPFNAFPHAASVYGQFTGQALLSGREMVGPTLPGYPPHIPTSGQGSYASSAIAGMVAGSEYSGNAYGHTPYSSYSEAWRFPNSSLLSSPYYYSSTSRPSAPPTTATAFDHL

[8] = OVCAR-3 cell viability loss – plate reader, dry powder samples, PAX8 inhibitor project, dose response (AID 743044); format: functional, cell-based
[9] = IGROV1 cell killing – plate reader, dry powder samples, PAX8 inhibitor project, dose response (AID 743043); format: functional, cell-based; conditions: IGROV-1
[10] = general mammalian cell viability loss – activator set, cherry-pick, cytotoxicity control for miR-122 modulator project, dose response (AID 720690); format: functional, cell-based;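 note: HEK293T human cells scored for general mammalian cytotoxicity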
[11] = general cell-killing toxicity readout – plate reader, dry powder samples, cytotoxicity control for PAX8 inhibitor project, dose response (AID 743021); format: functional, cell-based
[12] = OVCAR8 cell viability loss – plate reader, dry powder samples, PAX8 project, dose response (AID 743197); format: functional, cell-based; conditions: OVCAR-8
[13] = molecular target: T3, Oxysterols receptor LXR-beta (Homo sapiens, UniProt P55055); format: functional, cell-based;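 note: agonist activity at LXR measured by a cell-based luminescence readout across a dose range, run as a counterscreen for daf-12 agonists; HEK293 cells with Gal4-LXR fusion and GAL4-driven luciferase reporter; potency for activation of Gal4-LXR reporter so compounds are agonists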
T3 sequence (P55055 whole entry): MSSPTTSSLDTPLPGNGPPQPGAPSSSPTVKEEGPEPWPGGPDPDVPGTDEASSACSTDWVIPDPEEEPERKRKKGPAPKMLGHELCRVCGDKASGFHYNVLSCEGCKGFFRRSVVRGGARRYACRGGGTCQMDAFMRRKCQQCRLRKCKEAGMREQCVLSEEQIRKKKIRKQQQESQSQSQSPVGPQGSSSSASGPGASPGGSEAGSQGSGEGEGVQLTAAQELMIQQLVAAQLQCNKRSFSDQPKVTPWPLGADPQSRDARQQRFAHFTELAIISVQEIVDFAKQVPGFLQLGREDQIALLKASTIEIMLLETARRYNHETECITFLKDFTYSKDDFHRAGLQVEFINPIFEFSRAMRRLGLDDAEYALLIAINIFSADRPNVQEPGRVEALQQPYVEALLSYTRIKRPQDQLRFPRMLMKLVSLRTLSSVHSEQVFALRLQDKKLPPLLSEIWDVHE

[14] = blockers of HIV-1 envelope-mediated cell-cell fusion – cherry-pick, dose response (AID 652057); format: functional, cell-based

Chain of Glucose-6-phosphate 1-dehydrogenase (P11413 whole entry): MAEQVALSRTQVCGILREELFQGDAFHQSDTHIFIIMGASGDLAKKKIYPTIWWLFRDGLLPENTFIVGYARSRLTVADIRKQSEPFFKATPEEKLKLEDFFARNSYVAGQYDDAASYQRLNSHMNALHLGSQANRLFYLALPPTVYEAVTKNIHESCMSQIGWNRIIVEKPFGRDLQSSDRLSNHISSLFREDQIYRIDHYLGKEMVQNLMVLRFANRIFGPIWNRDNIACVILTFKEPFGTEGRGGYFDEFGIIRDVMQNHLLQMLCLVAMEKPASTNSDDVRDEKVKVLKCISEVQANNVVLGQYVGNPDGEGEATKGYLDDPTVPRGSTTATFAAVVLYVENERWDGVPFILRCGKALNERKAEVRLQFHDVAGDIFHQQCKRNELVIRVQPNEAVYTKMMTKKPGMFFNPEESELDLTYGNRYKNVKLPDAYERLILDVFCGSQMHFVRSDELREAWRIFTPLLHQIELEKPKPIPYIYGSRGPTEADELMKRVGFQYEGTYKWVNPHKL

Structure (SMILES): COc1cc(-c2cc(OC)c(O)c(OC)c2)cc(OC)c1O
IC50 [1]: > 80 µM (inactive)
IC50 [2]: 88.4 µM (active)
AC50 [3]: 27.4 µM (active)

AC50 [4]: 21.1 µM (active)
Structure (SMILES): Cc1ccc(-c2csc(NC(=O)C[n+]3cc(-c4ccccc4)n4c3CCC4)n2)cc1

Structure (SMILES): CC(C)(C)[S+]([O-])N1Cc2cc(C(=O)NCc3ccc4c(c3)OCO4)nc(-c3cccc(-c4cccc(F)c4)c3)c2[C@H]1CCO (some centres undefined)
AC50 [5]: 0.394 µM (active)

Structure (SMILES): Cc1ccccc1-c1ccc([C@@H]2[C@H](CO)N3CCCCN(C(=O)Nc4cccc(F)c4)C[C@@H]23)cc1
AC50 [6]: 9.43 µM (active)
AC50 [7]: 19.6 µM (active)
AC50 [8]: 20.4 µM (active)
AC50 [9]: 35.5 µM (active)
AC50 [10]: 13.7 µM (active)
AC50 [11]: 3.19 µM (active)

Structure (SMILES): CC(C)N1CC2(CN(Cc3ccc(Cl)cc3)C2)Oc2c(NC(=O)c3ccncc3)cccc2C1=O
AC50 [5]: 0.136 µM (active)

Structure (SMILES): Cc1cccc(S(=O)(=O)N2CCCCN3[C@H](CO)[C@H](c4ccc(C#C[C@H](C)O)cc4)[C@H]3C2)c1
AC50 [7]: 7.18 µM (active)
AC50 [8]: 30.4 µM (active)
AC50 [9]: 17.6 µM (active)
AC50 [12]: > 70 µM (inactive)

EC50 [13]: > 67.5 µM (inactive)
Structure (SMILES): Cc1nnc(SCC(=O)Nc2nsc(-c3ccc(C(C)(C)C)cc3)n2)s1

Structure (SMILES): N#C[C@@H]1[C@H](c2ccc(-c3ccccc3F)cc2)[C@@H](CO)N1C(=O)c1ccccn1
AC50 [14]: 62.6 µM (active)
AC50 [3]: 67 µM (active)

Structure (SMILES): C[C@@H]1CCCCO[C@H](CN(C)Cc2ccc(Cl)c(Cl)c2)[C@@H](C)CN([C@@H](C)CO)C(=O)c2cc(NC(=O)c3ccccc3)ccc2O1
AC50 [7]: 8.87 µM (active)
AC50 [8]: 43.1 µM (active)
AC50 [9]: 47.5 µM (active)
AC50 [11]: 52.7 µM (active)
AC50 [12]: 60 µM (active)
